Values of other authors as cited in patent publication US8486874B2, “Water-soluble processing oil agent” (Idemitsu Kosan Co., Ltd., priority 2009, dated 2013).

What was measured:
[1] = Peroral rat
[2] = compared with dicyclohexylamine, Table 1 data
[3] = Percutaneous rabbit

Structure (SMILES)	LD50 [1]	Toxicity relative to dicyclohexylamine [2]	LDLo [3]
C1CCC(NC2CCCCC2)CC1 [Dicyclohexylamine, reference compound]	LD50 373 mg/kg^1)		
CN(C1CCCCC1)C1CCCCC1 [Methyldicyclohexylamine]	LD50 446 mg/kg^1)	considerably lower	LDLo 2 g/kg^1)
